Assay results taken from ChEMBL document CHEMBL2062441, “An Orally Available 3-Ethoxybenzisoxazole Capsid Binder with Clinical Activity against Human Rhinovirus” (ACS Med Chem Lett, 2012).
In brackets after ≈: the same amount, converted by molar mass.

Columns and labels:
[1] = tested on: rhinovirus A2; experiment: Antirhinoviral activity against Human rhinovirus 2 infected in human HeLa cells assessed as inhibition of virus-induced cytopathic effect after 5 days by MTT assay; format: functional, organism-based; conditions: Rhinovirus A, 120 h
[2] = tested on: Human rhinovirus sp.; experiment: Antirhinoviral activity against Human rhinovirus 14 infected in human HeLa cells assessed as inhibition of virus-induced cytopathic effect after 5 days by MTT assay; format: functional, organism-based; conditions: Human rhinovirus sp., 14, HeLa, 120 h
[3] = tested on: Human rhinovirus sp.; experiment: Antirhinoviral activity against antiviral-resistant Human rhinovirus B infected in human HeLa cells assessed as inhibition of virus-induced cytopathic effect after 5 days by MTT assay; format: functional, organism-based; conditions: 120 h
[4] = tested on: Human rhinovirus sp.; experiment: Antirhinoviral activity against antiviral-resistant Human rhinovirus A infected in human HeLa cells assessed as inhibition of virus-induced cytopathic effect after 5 days by MTT assay; format: functional, organism-based; conditions: 120 h
[5] = tested on: Human rhinovirus sp.; experiment: Antirhinoviral activity against Human rhinovirus B infected in human HeLa cells assessed as inhibition of virus-induced cytopathic effect after 5 days by MTT assay; format: functional, organism-based; conditions: 120 h
[6] = tested on: Human rhinovirus sp.; experiment: Antirhinoviral activity against major receptor-resistant Human rhinovirus infected in human HeLa cells assessed as inhibition of virus-induced cytopathic effect after 5 days by MTT assay; format: functional, organism-based; conditions: 120 h
[7] = tested on: Human rhinovirus sp.; experiment: Ratio of EC50 for antiviral-resistant Human rhinovirus B to EC50 for antiviral-resistant Human rhinovirus A; format: functional
[8] = tested on: Human rhinovirus sp.; experiment: Antirhinoviral activity against Human rhinovirus A infected in human HeLa cells assessed as inhibition of virus-induced cytopathic effect after 5 days by MTT assay; format: functional, organism-based; conditions: 120 h
[9] = tested on: Human rhinovirus sp.; experiment: Antirhinoviral activity against minor receptor-resistant Human rhinovirus infected in human HeLa cells assessed as inhibition of virus-induced cytopathic effect after 5 days by MTT assay; format: functional, organism-based; conditions: 120 h
[10] = tested on: Human rhinovirus sp.; experiment: Ratio of EC50 for major receptor-resistant Human rhinovirus B to EC50 for minor receptor-resistant Human rhinovirus A; format: functional
[11] = tested on: Human rhinovirus sp.; experiment: Ratio of EC50 for Human rhinovirus B to EC50 for Human rhinovirus A; format: functional
[12] = in vivo; conditions: female, Lister hooded, rat, plasma, po, 50 mg/kg
Description: AUC in female lister hooded rat at 50 mg/kg, po

[13] = Tmax in human at 400 mg administered as single dose; conditions: in vivo
[14] = in vivo; conditions: female, beagle, dog, po, 50 mg/kg
Description: Cmax in female beagle dog at 50 mg/kg, po

[15] = in vivo; conditions: male, Lister hooded, rat, po, 50 mg/kg
Description: Oral bioavailability in male lister hooded rat at 50 mg/kg administered as single dose

[16] = in vivo; conditions: female, Lister hooded, rat, po, 50 mg/kg
Description: Tmax in female lister hooded rat at 50 mg/kg, po

[17] = Half life in female lister hooded rat at 50 mg/kg, po; conditions: in vivo
[18] = AUC (0 to infinity) in human at 400 mg administered as single dose; conditions: plasma
[19] = in vivo; conditions: female, beagle, dog, po, 50 mg/kg; remark: listed apart in the source
Description: Tmax in female beagle dog at 50 mg/kg, po

[20] = Half life in female beagle dog at 50 mg/kg, po; conditions: in vivo
[21] = in vivo; conditions: female, Lister hooded, rat, po, 50 mg/kg; remark: listed apart in the source
Description: Cmax in female lister hooded rat at 50 mg/kg, po

[22] = in vivo; conditions: male, Lister hooded, rat, po, 50 mg/kg; remark: listed apart in the source
Description: Tmax in male lister hooded rat at 50 mg/kg, po

[23] = in vivo; conditions: female, beagle, dog, plasma, po, 50 mg/kg
Description: AUC in female beagle dog at 50 mg/kg, po

[24] = in vivo; conditions: male, beagle, dog, po, 50 mg/kg
Description: Tmax in male beagle dog at 50 mg/kg, po

[25] = in vivo; conditions: male, beagle, dog, po, 50 mg/kg; remark: listed apart in the source
Description: Cmax in male beagle dog at 50 mg/kg, po

[26] = Half life in human at 400 mg administered as single dose; conditions: in vivo
[27] = in vivo; conditions: female, Lister hooded, rat, po, 50 mg/kg; remark: listed apart in the source
Description: Oral bioavailability in female lister hooded rat at 50 mg/kg administered as single dose

[28] = Cmax in human at 400 mg administered as single dose; conditions: in vivo
[29] = in vivo; conditions: male, beagle, dog, plasma, po, 50 mg/kg
Description: AUC in male beagle dog at 50 mg/kg, po

[30] = in vivo; conditions: male, Lister hooded, rat, plasma, po, 50 mg/kg
Description: AUC in male lister hooded rat at 50 mg/kg, po

[31] = Half life in male lister hooded rat at 50 mg/kg, po; conditions: in vivo
[32] = in vivo; conditions: male, Lister hooded, rat, po, 50 mg/kg; remark: listed apart in the source
Description: Cmax in male lister hooded rat at 50 mg/kg, po

[33] = Half life in male beagle dog at 50 mg/kg, po; conditions: in vivo

CCc1noc2cc(OCCC3CCN(c4ccc(C)nn4)CC3)ccc12
EC50 [1]: 24 ng/mL (≈ 0.0655 µM)
EC50 [2]: 88 ng/mL (≈ 0.24 µM)

CCOc1noc2cc(OCCC3CCN(c4ccc(Cl)nn4)CC3)ccc12
EC50 [1]: 3 ng/mL (≈ 0.00745 µM)
EC50 [2]: 19 ng/mL (≈ 0.0472 µM)

CCCOc1noc2cc(OCCC3CCN(c4ccc(C)nn4)CC3)ccc12
EC50 [1]: 3 ng/mL (≈ 0.00757 µM)
EC50 [2]: 29 ng/mL (≈ 0.0731 µM)

CCCc1noc2cc(OCCC3CCN(c4ccc(C)nn4)CC3)ccc12
EC50 [1]: 84 ng/mL (≈ 0.221 µM)
EC50 [2]: 13 ng/mL (≈ 0.0342 µM)

CCOc1nsc2cc(OCCC3CCN(c4ccc(C)nn4)CC3)ccc12
EC50 [1]: 3 ng/mL (≈ 0.00753 µM)
EC50 [2]: 29 ng/mL (≈ 0.0728 µM)

CCOc1noc2cc(OCCCC3CCN(c4ccc(Cl)nn4)CC3)ccc12
EC50 [1]: 3 ng/mL (≈ 0.0072 µM)
EC50 [2]: 9 ng/mL (≈ 0.0216 µM)

CCOC(=O)c1ccc(OCCC2CCN(c3ccc(C)nn3)CC2)cc1 [PIRODAVIR]
EC50 [3]: 2.6 ng/mL (≈ 0.00704 µM)
EC50 [4]: 20.6 ng/mL (≈ 0.0558 µM)
EC50 [5]: 11.1 ng/mL (≈ 0.03 µM)
EC50 [6]: 5.6 ng/mL (≈ 0.0152 µM)
Ratio EC50 [7]: 8.1
EC50 [1]: 3 ng/mL (≈ 0.00812 µM)
EC50 [8]: 4 ng/mL (≈ 0.0108 µM)
EC50 [2]: 4 ng/mL (≈ 0.0108 µM)
EC50 [9]: 2.3 ng/mL (≈ 0.00623 µM)
Ratio EC50 [10]: 2.4
Ratio EC50 [11]: 2.8

Cc1cc(CCCOc2c(C)cc(-c3noc(C(F)(F)F)n3)cc2C)on1 [PLECONARIL]
EC50 [3]: 33.8 ng/mL (≈ 0.0886 µM)
EC50 [4]: 388 ng/mL (≈ 1.02 µM)
EC50 [5]: 224 ng/mL (≈ 0.588 µM)
EC50 [6]: 49.2 ng/mL (≈ 0.129 µM)
Ratio EC50 [7]: 11.5
EC50 [8]: 37.4 ng/mL (≈ 0.0981 µM)
EC50 [9]: 23.2 ng/mL (≈ 0.0608 µM)
Ratio EC50 [10]: 2.1
Ratio EC50 [11]: 6

CCOC(=O)/C=C/[C@H](C[C@@H]1CCNC1=O)NC(=O)[C@@H](CC(=O)[C@@H](NC(=O)c1cc(C)on1)C(C)C)Cc1ccc(F)cc1 [RUPINTRIVIR]
EC50 [3]: 2 ng/mL (≈ 0.00334 µM)
EC50 [4]: 1.2 ng/mL (≈ 0.002 µM)
EC50 [5]: 1.2 ng/mL (≈ 0.002 µM)
EC50 [6]: 1.5 ng/mL (≈ 0.00251 µM)
Ratio EC50 [7]: 1.7
EC50 [8]: 2 ng/mL (≈ 0.00334 µM)
EC50 [9]: 3 ng/mL (≈ 0.00501 µM)
Ratio EC50 [10]: 2
Ratio EC50 [11]: 1.7

CCOc1noc2cc(OCCC3CCN(c4ccc(C)nn4)CC3)ccc12 [VAPENDAVIR]
AUC [12]: 489 µg·h/mL
Tmax [13]: 1.03 h
Cmax [14]: 6100 ng/mL
bioavailability [15]: 94%
Tmax [16]: 11.2 h
half-life [17]: 46.4 h
AUC(0-inf) [18]: 13.8 µg·h/mL
Tmax [19]: 7.7 h
half-life [20]: 15.9 h
EC50 [1]: 1 ng/mL (≈ 0.00261 µM)
Cmax [21]: 17700 ng/mL
Tmax [22]: 16 h
AUC [23]: 121 µg·h/mL
Tmax [24]: 14.7 h
Cmax [25]: 11000 ng/mL
half-life [26]: 11.8 h
bioavailability [27]: 95%
Cmax [28]: 1890 ng/mL
AUC [29]: 202 µg·h/mL
AUC [30]: 483 µg·h/mL
half-life [31]: 51.6 h
Cmax [32]: 22500 ng/mL
half-life [33]: 18.3 h
